In PMC12239085, “Silver(I) Ions Bridging Oxadiazole-2-thione Derivatives with Mitochondriotropic Agents: A Promising Strategy for Potent Anticancer Chemotherapy” (Inorganic Chemistry, 2025):
“And” between values parts separate entries of the source, which are not always exact repeats. Equal entries are not always repeated. Where two headings read alike, the source gives them in different places.

Columns and labels:
[1] = tested on: MDA-MB-231 human breast adenocarcinoma cells (hormone-independent); assay: SRB antiproliferative assay, MDA-MB-231; type: cell-based; settings: Homo sapiens, MDA-MB-231, 48 h incubation
Procedure: (§1) Stock solutions of compounds 1a–5a and 1–5 (0.01 M) in DMSO were freshly prepared and subsequently diluted with cell culture media to appropriate concentrations for various biological experiments. These included the assessment of cell viability using the SRB assay, micronucleus testing, cell morphology studies, cell cycle arrest, AO/EB staining, and mitochondrial membrane permeabilization tests. For CT-DNA binding studies, experiments were conducted in DMSO/buffer solutions. All biological experiments were performed in triplicate or more.
(§2) Stock solutions of 1a–5a and 1–5 (0.01 M) were dissolved in DMSO and subsequently diluted with cell culture medium to the desired concentrations (0.5–30 μM). MCF-7, MDA MB-231, and MRC-5 cells were plated in 96-well flat-bottom microplates at various densities: 6000, 8000, and 2000 cells per well, respectively. The cells were incubated for 24 h at 37 °C and then exposed to 1a–5a and 1–5 for 48 h. ,–
(§3) Cytotoxicity was evaluated using the SRB colorimetric assay at λ = 568 nm, with cell survival percentages calculated relative to the untreated control cells. Detailed information on the SRB assay procedure can be found in the previous publication. ,–

[2] = tested on: normal human fetal lung fibroblast (MRC-5) cells; assay: SRB toxicity assay, MRC-5; type: cell-based; settings: Homo sapiens, MRC5, 48 h incubation
Procedure: as §1, §2, §3

[3] = tested on: MCF-7 human breast adenocarcinoma cells (hormone-dependent); assay: SRB antiproliferative assay, MCF-7; type: cell-based; settings: for IC50: Homo sapiens, MCF7, SRB assay, 48 h incubation; for (%) cells viability: MCF-7 cells, ligands with IC50 higher than 30 μM
Procedure: as §1, §2, §3

lipoxygenase (LOX) = target: T1, lipoxygenase (LOX) (Glycine max, UniProt P08170); settings: cisplatin comparison; ref number not given; read-out: IC50 against LOX; cited from earlier work
T1 sequence (P08170 1-839): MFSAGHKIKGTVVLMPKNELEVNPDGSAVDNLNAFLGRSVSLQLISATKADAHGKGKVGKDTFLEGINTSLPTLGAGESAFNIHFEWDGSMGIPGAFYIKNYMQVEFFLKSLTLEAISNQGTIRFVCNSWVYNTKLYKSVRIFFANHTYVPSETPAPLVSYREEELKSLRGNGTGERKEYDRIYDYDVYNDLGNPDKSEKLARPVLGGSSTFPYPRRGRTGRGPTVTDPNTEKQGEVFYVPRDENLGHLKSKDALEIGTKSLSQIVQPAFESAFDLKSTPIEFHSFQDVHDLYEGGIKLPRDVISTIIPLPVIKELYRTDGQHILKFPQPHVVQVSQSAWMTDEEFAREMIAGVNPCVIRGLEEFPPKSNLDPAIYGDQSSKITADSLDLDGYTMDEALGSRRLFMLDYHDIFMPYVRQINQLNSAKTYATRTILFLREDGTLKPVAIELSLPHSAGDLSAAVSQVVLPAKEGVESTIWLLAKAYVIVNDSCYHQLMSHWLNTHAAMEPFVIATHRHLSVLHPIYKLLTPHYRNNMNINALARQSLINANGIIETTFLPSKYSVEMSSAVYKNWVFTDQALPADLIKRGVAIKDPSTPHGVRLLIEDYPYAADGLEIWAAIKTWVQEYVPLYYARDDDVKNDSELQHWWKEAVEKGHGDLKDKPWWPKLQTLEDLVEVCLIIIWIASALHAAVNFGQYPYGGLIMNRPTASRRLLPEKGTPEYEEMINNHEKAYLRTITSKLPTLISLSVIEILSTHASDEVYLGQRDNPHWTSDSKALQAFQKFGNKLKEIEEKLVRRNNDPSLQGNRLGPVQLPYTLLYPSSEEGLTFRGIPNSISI

[4] = tested on: MDA-MB-231 human breast adenocarcinoma cells (hormone-independent); set-up: method as in column not 'this study', ref number not given; settings: 48 h incubation; ref not 'this study', ref number not given; cited from earlier work
[5] = tested on: MCF-7 human breast adenocarcinoma cells (hormone-dependent); settings: 48 h incubation; ref not 'this study', ref number not given; cited from earlier work
MRC-5 cells = tested on: MRC-5 cells; set-up: method as in number not given; settings: cited from earlier work
[6] = tested on: normal human fetal lung fibroblast (MRC-5) cells; set-up: method as in column not 'this study', ref number not given; settings: 48 h incubation; ref not 'this study', ref number not given; cited from earlier work
[7] = tested on: nontumorigenic human breast epithelial cell line (MCF-10A); set-up: method as in column not 'this study', ref number not given; settings: 48 h incubation; ref not 'this study', ref number not given; cited from earlier work
MCF-7 cells [8] = tested on: MCF-7 cells; set-up: method as in number not given; settings: cisplatin comparison; ref number not given; cited from earlier work
MCF-7 cells [9] = tested on: MCF-7 cells; set-up: method as in number not given; settings: cisplatin comparison, ref number not given; cited from earlier work
MCF-7 cells [10] = tested on: MCF-7 cells; set-up: method as in number not given; settings: cisplatin comparison; ref number not given; cited from earlier work; remark: listed apart in the source

IC50 [1] [µM]	IC50 [3] [µM]	Compound	IC50 [2] [µM]	(%) cells viability [3] [%]	also measured
> 30	> 30	Sc1nnc(-c2cccc(Cl)c2)o1 [5a]	> 30	90.1	–
> 30	> 30	Fc1ccccc1-c1nnc(S)o1 [2a]	> 30	95.7	–
–	–	N.N.[Cl][Pt][Cl] [cisplatin]	–	–	IC50 (lipoxygenase (LOX)): 65.9 µM; IC50 [4]: 26.7 ± 1.1 µM; IC50 [5]: 5.5 ± 0.4 µM; Percentage of MN (MRC-5 cells; control = 0.8, ref number not given): 1.6 (control = 0.8) %; Relative ratio of MN toward its control (MRC-5 cells; ref number not given): 2.0; IC50 [6]: 1.1 ± 0.2 µM; IC50 [7]: 11 ± 3 µM; relative rate of apoptotic MCF-7 cells (MCF-7 cells [8]): 5.88 and 5.9; fluorescence quenching (MMP) (MCF-7 cells [9]): 54.9%; Relative rate of MCF-7 cells in sub-G1 phase (MCF-7 cells [10]): 2.9
> 30	> 30	Fc1ccc(-c2nnc(S)o2)cc1 [3a]	> 30	90.7	–
> 30	> 30	S=c1[nH]nc(-c2ccccc2)o1 [1a]	> 30	84.7	–
> 30	> 30	Sc1nnc(-c2ccccc2Cl)o1 [4a]	> 30	80.3	–
–	–	c1ccc(P(c2ccccc2)c2ccccc2)cc1 [TPP, triphenylphosphine]	–	–	IC50 [4]: > 30 µM; IC50 [5]: 28.9 ± 1.4 µM; IC50 [6]: > 30 µM
